{
  "source": "paper PMC4231751",
  "about": "“Highly potent dUTPase inhibition by a bacterial repressor protein reveals a novel mechanism for gene expression control” (Nucleic Acids Research, 2014)",
  "molecular_target": "T1, Φ11 dUTPase (Φ11DUT) (Staphylococcus phage phi 11, UniProt Q8SDV3)",
  "T1 construct": "tag-free, expressed from pETDuet-1; Q-sepharose and Superdex 75; homotrimer",
  "assay": "phenol red proton release assay, […] nm",
  "format": "biochemical",
  "settings": "30 μM dUTP, 10 nM enzyme, 1 mM Hepes pH 7.5, 5 mM MgCl2, 150 mM KCl, 293 K",
  "data": [
    {"molecule": "O=c1ccn([C@H]2C[C@H](O)[C@@H](COP(=O)(O)OP(=O)(O)OP(=O)(O)O)O2)c(=O)[nH]1", "note": "[dUTP]", "values": [
      {"measurement": "phenol red proton release assay, 559 nm", "result": "Proton release during the transformation of dUTP into dUMP and PPi was followed continuously"}
    ]}
  ]
}
